Measured values from patent US11825838B2, “Tricyclic carboxamides for controlling arthropods” (Bayer CropScience Aktiengesellschaft, priority 2017, dated 2023).

Legend:
Format in all cases: in vivo
Spodoptera frugiperda = Spodoptera frugiperda spray test (SPODFR)
Description: Spodoptera frugiperda—Spray Test
(§1) To produce a suitable active ingredient formulation, 1 part by weight of active ingredient is dissolved with the specified parts by weight of solvent and made up to the desired concentration with water containing an emulsifier concentration of 1000 ppm. To produce further test concentrations, the formulation is diluted with emulsifier-containing water.
Leaf discs of maize (Zea mays) are sprayed with an active ingredient formulation of the desired concentration and, after drying, populated with caterpillars of the armyworm (Spodoptera frugiperda).
After 7 days, the efficacy in % is determined. 100% means that all the caterpillars have been killed; 0% means that no caterpillar has been killed.
Spodoptera frugiperda—Spray Test (SPODFR)
as §1, with “compound” for “ingredient”
Leaf discs of maize (Zea mays) are sprayed with an active compound formulation of the desired concentration and, after drying, populated with caterpillars of the armyworm (Spodoptera frugiperda).
After the desired time, the efficacy in % is determined. 100% means that all the caterpillars have been killed; 0% means that no caterpillar has been killed.

Ctenocephalides felis = Ctenocephalides felis in vitro contact test with adult cat fleas; settings: application rate 5 μg/cm^2 (=500 g/ha), after 48 h, adult cat fleas dead or moribund
Description: Ctenocephalides felis—In Vitro Contact Tests with Adult Cat Fleas
(§2) For the coating of the test tubes, 9 mg of active ingredient are first dissolved in 1 ml of acetone p.a. and then diluted to the desired concentration with acetone p.a. 250 μl of the solution are distributed homogeneously on the inner walls and the base of a 25 ml glass tube by turning and rocking on an orbital shaker (rocking rotation at 30 rpm for 2 h). With 900 ppm of active ingredient solution and internal surface area 44.7 cm^2, given homogeneous distribution, an area-based dose of 5 μg/cm^2 is achieved.
After the solvent has evaporated off, the tubes are populated with 5-10 adult cat fleas (Ctenocephalides felis), sealed with a perforated plastic lid and incubated in a horizontal position at room temperature and ambient humidity. After 48 h, efficacy is determined. To this end, the tubes are stood upright and the fleas are knocked to the base of the tube. Fleas which remain motionless at the base or move in an uncoordinated manner are considered to be dead or moribund.
100% efficacy means that all the fleas were dead or moribund. 0% efficacy means that no fleas were harmed.

[1] = system: cattle ticks (Boophilus microplus) Parkhurst strain, SP-resistant; experiment: Boophilus microplus dip test; settings: application rate 100 ppm, assessed after 7 days by laying of fertile eggs
Description: Boophilus microplus—Dip Test
Test animals: cattle ticks (Boophilus microplus) Parkhurst strain, SP-resistant
(§3) Solvent: dimethyl sulfoxide
10 mg of active ingredient are dissolved in 0.5 ml of dimethyl sulfoxide. To produce a suitable formulation, the active ingredient solution is diluted with water to the concentration desired in each case. This active ingredient formulation is pipetted into tubes. 8-10 engorged adult female cattle ticks (Boophilus microplus) are transferred into a further tube with holes. The tube is immersed into the active ingredient formulation, and all the ticks are completely wetted. After the liquid has run out, the ticks are transferred on filter discs into plastic dishes and stored in a climate-controlled room.
(§4) Efficacy is assessed after 7 days by laying of fertile eggs. Eggs which are not visibly fertile are stored in a climate-controlled cabinet until the larvae hatch after about 42 days. An efficacy of 100% means that none of the ticks has laid any fertile eggs; 0% means that all the eggs are fertile.

Musca domestica = Musca domestica test; settings: application rate 100 ppm, adult houseflies, after 2 days
Description: as §3
(§5) To produce a suitable active ingredient formulation, 10 mg of active ingredient are mixed with 0.5 ml of dimethyl sulfoxide, and the concentrate is diluted with water to the desired concentration.
Vessels containing a sponge treated with sugar solution and the active ingredient formulation of the desired concentration are populated with 10 adult houseflies (Musca domestica).
After 2 days, the rate of extermination in % is determined. 100% means that all of the flies have been killed; 0% means that none of the flies have been killed.

Lucilia cuprina = Lucilia cuprina test; settings: application rate 100 ppm, L1 larvae, after 2 days
Description: as §3, §5
About 20 L1 larvae of the Australian sheep blowfly (Lucilia cuprina) are transferred into a test vessel containing minced horsemeat and the active compound preparation of the desired concentration.
After 2 days, the rate of extermination in % is determined. 100% means that all the larvae have been killed; 0% means that no larvae have been killed.

Tetranychus urticae = Tetranychus urticae spray test, OP-resistant (TETRUR); settings: for efficacy: spray, after 6 days
Description: Tetranychus urticae—Spray Test, OP-Resistant
as §1
Discs of bean leaves (Phaseolus vulgaris) infested with all stages of the greenhouse red spider mite (Tetranychus urticae) are sprayed with an active compound preparation of the desired concentration.
After 6 days, the efficacy in % is determined. 100% means that all the spider mites have been killed; 0% means that no spider mites have been killed.
Tetranychus urticae—Spray Test; OP-Resistant (TETRUR)
as §1, with “compound” for “ingredient”
Discs of bean leaves (Phaseolus vulgaris) infested with all stages of the greenhouse red spider mite (Tetranychus urticae) are sprayed with an active compound formulation of the desired concentration.
After the desired time, the efficacy in % is determined. 100% means that all the spider mites have been killed; 0% means that no spider mites have been killed.

Boophilus microplus = Boophilus microplus injection test; settings: application rate 20 μg/animal, assessed after 7 days by laying of fertile eggs
Description: Boophilus microplus—Injection Test
as §3
To produce a suitable active compound preparation, 10 mg of active compound are mixed with 0.5 ml of solvent and the concentrate is diluted to the desired concentration with solvent.
1 μl of the active ingredient solution is injected into the abdomen of 5 engorged adult female cattle ticks (Boophilus microplus). The animals are transferred into dishes and kept in a climate-controlled room.
as §4

Rhipicephalus sanguineus = Rhipicephalus sanguineus in vitro contact test with adult brown dog ticks; settings: application rate 5 μg/cm^2 (=500 g/ha), after 48 h, adult dog ticks dead or moribund
Description: Rhipicephalus sanguineus—In Vitro Contact Tests with Adult Brown Dog Ticks
as §2
After the solvent has evaporated off, the tubes are populated with 5-10 adult dog ticks (Rhipicephalus sanguineus), sealed with a perforated plastic lid and incubated in a horizontal position in the dark at room temperature and ambient humidity. After 48 h, efficacy is determined. To this end, the ticks are knocked to the base of the tube and incubated on a hotplate at 45-50° C. for not more than 5 min. Ticks which remain motionless on the base or move in such an uncoordinated manner that they are unable to deliberately avoid the heat by climbing upwards are considered to be dead or moribund.
An efficacy of 100% means that all the ticks were dead or moribund. 0% efficacy means that none of the ticks were harmed.

Compound	Emax at 100 g/ha (Spodoptera frugiperda; Spodoptera frugiperda, 168 h, SPODFR, 100 g ai/ha, 7 dat, read-out: % efficacy dat)	pest or weed control at 100 g/ha (Spodoptera frugiperda; Spodoptera frugiperda, 168 h, application rate 100 g/ha, spray, after 7 days, read-out: efficacy)	efficacy (Ctenocephalides felis)	efficacy [1]	efficacy (rate of extermination) (Musca domestica)	efficacy (rate of extermination) (Lucilia cuprina)	Emax at 100 g/ha (Tetranychus urticae; Tetranychus urticae, 144 h, TETRUR, 100 g ai/ha, 6 dat, read-out: % efficacy dat)	efficacy (Tetranychus urticae; application rate 20 g/ha)	efficacy (Boophilus microplus)	efficacy (Rhipicephalus sanguineus)	efficacy (Spodoptera frugiperda; application rate 100 g/ha, spray, after 7 days)	efficacy (Tetranychus urticae; application rate 100 g/ha)
O=C(NC1CC1)c1cc(-c2cnn(-c3c(Cl)cc(C(F)(C(F)(F)F)C(F)(F)F)cc3Cl)c2)sc1Br [I-T1-1]	100%	100%	100%	100%	100%	100%	70%	100%	100%	100%		
Cc1sc(-c2cnn(-c3c(Cl)cc(C(F)(C(F)(F)F)C(F)(F)F)cc3Cl)c2)cc1C(=O)NC1CC1 [I-T1-11]			100%	100%	100%	100%		100%	100%	100%	100%	100%
